Here are results for one compound from patent publication US6833353B1, “Use of immunosuppressants for MMP mediated diseases” (Fujisawa Pharmaceutical Co., Ltd., priority 1998, dated 2004).

The structures appear in SMILES notation. Marks after values point to notes of the source that are not given here.

Assay type in all cases: in vivo, Lewis rats
One assay deals with cartilage degradation. Kind of assay: Cartilage degradation in cotton-wrapped cartilage implant model (hydroxyproline content of implanted cartilage).
Another assay concerns collagenase. Kind of assay: Collagenolytic activity in granulomatous tissue extract, implant model. Conditions: day 14. On the procedure:
(§1) Bone and excess tissue overlying the cartilage was removed under sterile conditions, in an airflow hood. The septum was washed in 70% ethanol before the cartilage was cut to a weight of 40×2mg. The cartilages were wrapped tightly in sterile cotton squares and soaked in 0.1 ml of a 10 mg/ml homogenized suspension of heat-killed Mycobacterium tuberculosis H37RA (Difco) in saline. Eight cartilages were stored in −20° C., these were to measure the levels of collagen in non-implanted cartilages.
(§2) Eight weeks old female Lewis rats were anaesthetized using halothane. The stomach area was shaved and swabbed with ethanol. […]
(§3) The granulomatous tissues were homogenized in 1 ml of 50 mM Tris, pH 7.5 containing 5 mM CaCl2, 0.1% Triton X-100 and 0.02% NaN3) After centrifugation of the extract at 15000 rpm for 10 min to remove debris, the supernatant was assayed for collagenolytic activity, gelatinolytic activity, tumor necrosis factor-α (TNF-α) level and Interferon-γ (IFN-γ) level. Collagenolytic and gelatinolytic activities in the extracts were measured using commercial assay kits (YAGAI, Japan). Cytokines levels were also measured using ELISA kits (Cosmo Bio, Japan). The protein contents in the extracts was determined using the method of Lowry.
(§4) Data is expressed as mean±SEM. The significance of differences was determined by Dunnett's multiple comparison test (*p<0.05, **p<0.01).

A further assay concerns gelatinase. Kind of assay: Gelatinolytic activity in granulomatous tissue extract, implant model. The following applies: day 14. On the procedure: as §1, §2, §3, §4
Another assay concerns TNF-α. Kind of assay: TNF-α level in granulomatous tissue extract (ELISA), implant model. Conditions: day 14. The procedure:
as §1, §2, §3, §4

For another assay, the system named is IFN-γ. Kind of assay: IFN-γ level in granulomatous tissue extract (ELISA), implant model. Conditions: day 14. On the procedure: as §1, §2, §3, §4
(In an ELISA, binding on a coated surface is turned into a signal by an enzyme label.)

As to `C=CC[C@@H]1/C=C(\C)C[C@H](C)C[C@H](OC)[C@H]2O[C@@](O)(C(=O)C(=O)N3CCCC[C@H]3C(=O)O[C@H](/C(C)=C/[C@@H]3CC[C@@H](O)[C@H](OC)C3)[C@H](C)[C@@H](O)CC1=O)[C@H](C)C[C@@H]2OC` [FK506, 17-allyl-1,14-dihydroxy-12-[2-(4-hydroxy-3-methoxycyclohexyl)-1-methylvinyl]-23,25-dimethoxy-13,19,21,27-tetramethyl-11,28-dioxa-4-azatricyclo[22.3.1.0^4,9] octacos-18-ene-2,3,10,16-tetraone], in the assay on cartilage degradation (3.2 mg/kg po once daily, 14 days, implanted bovine nasal cartilage, rat), the “Recovery (%) of Hydroxyproline” value was 61.9** %. Also, the “inhibition of the decrease of hydroxyproline contents in cartilage” value in the assay with cartilage degradation (3.2 mg/kg po, uid, rat implant model) was determined as 62%. In addition, the “inhibition (%) collagenase” value came to 7.7% with collagenase (1.0 mg/kg po once daily) and 29.8% in the assay on collagenase (3.2 mg/kg po once daily). The “inhibition (%) gelatinase” value in the assay on gelatinase (1.0 mg/kg po once daily) was 67.9* %; in the assay with gelatinase (3.2 mg/kg po once daily), 82.1** %. Besides, the “inhibition (%) TNF-α” value is recorded as 43.9** % in the assay on TNF-α (1.0 mg/kg po once daily) and 56.6** % in the assay with TNF-α (3.2 mg/kg po once daily). Further, the “inhibition (%) IFN-γ” value in the assay with IFN-γ (1.0 mg/kg po once daily) was 58.1%; with IFN-γ (3.2 mg/kg po once daily), 73.4* %.
